Where “and” joins values, the source holds several entries; their conditions need not be identical. Identical values can stand only once. Bridge positions count the residues as written; N and C are the ends. Ends that are not written are not given here.
Key:
myoblasts = assay: Myoblast proliferation / biological activity of synthetic peptides with other cysteine connectivities (results not shown); type: cell-based; conditions: synthetic peptides of stated connectivity or truncation
Method: (§1) Bovine C2C12 myoblasts were grown in Dulbecco's modified eagle medium according to the standard techniques (Thomas et al, 2000). The myoblast proliferation assay was carried out in uncoated 96-well microtitre plates. C2C12 cultures were seeded at 1000 cells/well. Following a 16-hour attachment period, test media containing varying concentrations of either the synthetic 310 peptide in the 2-3 conformation, the synthetic 310 peptide in the 1-4/2-3 conformation or the positive control (recombinant 310 peptide) were added and cells were incubated for a further 48 or 72 hour period. After the incubation period, proliferation was assessed using methylene blue photometric endpoint assay as previously described (Thomas et al, 2000).
A number of synthetic peptides were prepared having an amino acid sequence corresponding to amino acids at positions 267-310 and 282-310 of SEQ ID NO:1. Of the 267-310 peptides a number of different connectivities were prepared as follows: • 1. 1-3/2-4 • 2. 1-2/3-4 • 3. 1-2 • 4. 1-3 • 5. 1-4 • 6. 1-2, 3-4/1-3, 2-4 • 7. 2-4 • 8. 3-4 • 9. 1-4/2-3 • 10. Linear (no forced connectivity)
The peptides were synthesized as described above in example 1. Different cysteine residues were protected and deprotected to produce the specified connectivities and would be understood by a skilled worker.

C2C12 myoblasts [1] = assay: Myoblast proliferation assay (methylene blue photometric endpoint); type: cell-based, Mouse; conditions: for % proliferation above control: control (media + buffer) = 100%; for myoblast proliferation / biological activity (in words): 48 or 72 hours, compared to control (media and buffer only)
From the text: A synthetic peptide of the invention, or a functional variant or fragment thereof has the biological function of antagonising myostatin activity. To determine whether a synthetic peptide of the invention, or functional variant or fragment thereof, is able to antagonise myostatin activity, such activity can be tested by growing myoblasts in the presence or absence (control) of a candidate synthetic peptide of the invention. […] A suitable cell line could be murine C2Cl2 myoblasts (ATCC NO: CRL-1772), however, it will be appreciated that any suitable myoblast cell line could be used, such as primary ovine, bovine, porcine or human myoblasts.
as §1, with “The” for “Bovine C2C12 myoblasts were grown in Dulbecco's modified eagle medium according to the standard techniques (Thomas et al, 2000). The”

C2C12 myoblasts [2] = assay: Nuclei count per well by DAPI staining of the myoblast proliferation plates; type: cell-based, Bovine
Method: as §1
To confirm that the increased proliferation observed in example 1 was not simply false positive results, the plates were used to count nuclei.
Cells in the wells of interest were stained with DAPI (4′-6-diamidino-2-phenylindole) which is a fluorescent dye that stains nuclei blue. DAPI was used at a concentration of […] in PBS and cells stained for 5 mins at room temperature, then washed once with PBS buffer. Images of each well were then captured via a Leica DMI 6000 microscope and an image analysis program (Image-Pro plus) utilised to count the nuclei. For each treatment (recombinant 310 positive control, and synthetic peptides (2-3) and (1-4/2-3) at 10 and 20 µg/ml), 3-6 wells per treatment were analysed.

myostatin = conditions: recombinant peptide, WO 2008/016314; cited from earlier work

In the case of “Synthetic 310 (2-3/1-4 connectivity): Synthetic peptide of amino acids 267-310 of bovine myostatin (SEQ ID NO:4) with forced 2-3/1-4 disulfide connectivity (DFGLDCDEHSTESRCCRYPLTVDFEAFGWDWIIAPKRYKANYCS; disulfide 15-16, 6-43)”, the “biological activity / enhanced myoblast proliferation (in words)” value (myoblasts) is reported as “biologically active”, the “% proliferation above control” value (C2C12 myoblasts [1]; 0.1 μg, 48 h) is reported as 100.17% and the “% proliferation above control” value (C2C12 myoblasts [1]; 0.1 μg, 72 h) is reported as 100.54%. For the same substance, the “% proliferation above control” value (C2C12 myoblasts [1]; 1.0 μg, 48 h) was 100.07%, the “% proliferation above control” value (C2C12 myoblasts [1]; 1.0 μg, 72 h) was 102.60% and the “% proliferation above control” value (C2C12 myoblasts [1]; 10 μg, 48 h) was 108.58%. The “% proliferation above control” value (C2C12 myoblasts [1]; 10 μg, 72 h) was 107.51%, the “% proliferation above control” value (C2C12 myoblasts [1]; 20.0 μg, 48 h) was 106.87% and the “% proliferation above control” value (C2C12 myoblasts [1]; 20.0 μg, 72 h) was 110.47%. The “myoblast proliferation / biological activity (in words)” value (C2C12 myoblasts [1]) was “slightly more biological activity”, the “Number of nuclei per well” value (C2C12 myoblasts [2]; 10 μg, 48 h) was 810.2 and the “Number of nuclei per well” value (C2C12 myoblasts [2]; 10 μg, 72 h) was 2328.2. The “Number of nuclei per well” value (C2C12 myoblasts [2]; 20.0 μg, 48 h) was 739.3, the “Number of nuclei per well” value (C2C12 myoblasts [2]; 20.0 μg, 72 h) was 2172.0 and the “increase in cell numbers (in words)” value (C2C12 myoblasts [2]; 72 h) was “significant increases in cell numbers”.

With “3-4: Synthetic 267-310 myostatin peptide with 3-4 cysteine connectivity (DFGLDCDEHSTESRCCRYPLTVDFEAFGWDWIIAPKRYKANYCS; disulfide 16-43; not fully specified (bridges); cysteine pairing not given here; UniProt O18836 267-310, looked up, fragment)” the “biological activity / enhanced myoblast proliferation (in words)” value (myoblasts) was “not biologically active”.

For “synthetic peptide having a truncation position at 281: Synthetic mature myostatin peptide C-terminally truncated at position 281 (DFGLDCDEHSTESRC; Growth/differentiation factor 8; UniProt O18836 267-281, looked up, fragment)”, the “biological activity / enhanced myoblast proliferation (in words)” value (myoblasts) was “not biologically active”.

In the case of “linear 310 synthetic peptide: Synthetic 267-310 myostatin peptide, linear, no forced connectivity (DFGLDCDEHSTESRCCRYPLTVDFEAFGWDWIIAPKRYKANYCS; Growth/differentiation factor 8 linear; UniProt O18836 267-310, looked up, fragment)”, the “biological activity / enhanced myoblast proliferation (in words)” value (myoblasts) is reported as “showed enhanced myoblast proliferation”.

With “310 synthetic peptide that was N-terminally truncated at amino acid position 282: Synthetic peptide of amino acids 282-310 of SEQ ID NO:1, only cysteines 3 and 4 (CRYPLTVDFEAFGWDWIIAPKRYKANYCS; only cysteines 3 and 4; listed as Homo sapiens)” the “biological activity / enhanced myoblast proliferation (in words)” value (myoblasts) was “not active”.

In the case of “1-4: Synthetic 267-310 myostatin peptide with 1-4 cysteine connectivity (DFGLDCDEHSTESRCCRYPLTVDFEAFGWDWIIAPKRYKANYCS; disulfide 6-43; not fully specified (bridges); cysteine pairing not given here; UniProt O18836 267-310, looked up, fragment)”, the “biological activity / enhanced myoblast proliferation (in words)” value (myoblasts) is reported as “not biologically active”.

For “2-4: Synthetic 267-310 myostatin peptide with 2-4 cysteine connectivity (DFGLDCDEHSTESRCCRYPLTVDFEAFGWDWIIAPKRYKANYCS; disulfide 15-43; not fully specified (bridges); cysteine pairing not given here; UniProt O18836 267-310, looked up, fragment)”, the “biological activity / enhanced myoblast proliferation (in words)” value (myoblasts) was “not biologically active”.

With “1-2: Synthetic 267-310 myostatin peptide with 1-2 cysteine connectivity (DFGLDCDEHSTESRCCRYPLTVDFEAFGWDWIIAPKRYKANYCS; disulfide 6-15; not fully specified (bridges); cysteine pairing not given here; UniProt O18836 267-310, looked up, fragment)” the “biological activity / enhanced myoblast proliferation (in words)” value (myoblasts) was “not biologically active”.

With “1-3: Synthetic 267-310 myostatin peptide with 1-3 cysteine connectivity (DFGLDCDEHSTESRCCRYPLTVDFEAFGWDWIIAPKRYKANYCS; disulfide 6-16; not fully specified (bridges); cysteine pairing not given here; UniProt O18836 267-310, looked up, fragment)” the “biological activity / enhanced myoblast proliferation (in words)” value (myoblasts) was “not biologically active”.

For “mature recombinant myostatin peptide C-terminally truncated at position 281: Recombinant mature myostatin peptide truncated at 281, two cysteines (1-2 connectivity), from WO 2008/016314 (DFGLDCDEHSTESRC; disulfide 6-15; UniProt O18836 267-281, looked up, fragment)”, the “biological activity (in words)” value (myostatin) is listed as “biologically active”.

With “Synthetic 310 (2-3 connectivity): Synthetic peptide of amino acids 267-310 of bovine myostatin with forced disulfide between cysteines 2 and 3 (281, 282) (DFGLDCDEHSTESRCCRYPLTVDFEAFGWDWIIAPKRYKANYCS; disulfide 15-16; not fully specified (bridges); cysteine pairing not given here; UniProt O18836 267-310, looked up, fragment)” the “% proliferation above control” value (C2C12 myoblasts [1]; 0.1 μg, 48 h) was 101.66%, the “% proliferation above control” value (C2C12 myoblasts [1]; 0.1 μg, 72 h) was 101.06% and the “% proliferation above control” value (C2C12 myoblasts [1]; 1.0 μg, 48 h) was 97.70%. The “% proliferation above control” value (C2C12 myoblasts [1]; 1.0 μg, 72 h) was 102.00%, the “% proliferation above control” value (C2C12 myoblasts [1]; 10 μg, 48 h) was 104.18% and the “% proliferation above control” value (C2C12 myoblasts [1]; 10 μg, 72 h) was 103.83%. The “% proliferation above control” value (C2C12 myoblasts [1]; 20.0 μg, 48 h) was 105.00%, the “% proliferation above control” value (C2C12 myoblasts [1]; 20.0 μg, 72 h) was 105.07% and the “myoblast proliferation / biological activity (in words)” value (C2C12 myoblasts [1]) was “biologically active”. For the same substance, the “Number of nuclei per well” value (C2C12 myoblasts [2]; 10 μg, 48 h) was 810.5, the “Number of nuclei per well” value (C2C12 myoblasts [2]; 10 μg, 72 h) was 1906.1 and the “Number of nuclei per well” value (C2C12 myoblasts [2]; 20.0 μg, 48 h) was 808.9. The “Number of nuclei per well” value (C2C12 myoblasts [2]; 20.0 μg, 72 h) was 1903.6, the “increase in cell numbers (in words)” value (C2C12 myoblasts [2]; 48 h) was “significant increases in cell numbers” and the “increase in cell numbers (in words)” value (C2C12 myoblasts [2]; 72 h) was “significant increases in cell numbers”.

With “310 positive control: Recombinant peptide of amino acids 267-310 of bovine myostatin with N terminal and C terminal tags, positive control (DFGLDCDEHSTESRCCRYPLTVDFEAFGWDWIIAPKRYKANYCS; cysteine pairing not given here; also: N- and C-terminal tags; UniProt O18836 267-310, looked up, fragment) [reference compound]” the “% proliferation above control” value (C2C12 myoblasts [1]; 10 μg, 48 h) was 113.58% and 111.76%, the “% proliferation above control” value (C2C12 myoblasts [1]; 10 μg, 72 h) was 122.97% and 119.64% and the “myoblast proliferation / biological activity (in words)” value (C2C12 myoblasts [1]) was “significantly enhanced myoblast proliferation”. For the same substance, the “Number of nuclei per well” value (C2C12 myoblasts [2]; 10 μg, 48 h) was 847.1 and 816.7 and the “Number of nuclei per well” value (C2C12 myoblasts [2]; 10 μg, 72 h) was 2429.3 and 2229.2.

From US20130065820A1, “SYNTHETIC MYOSTATIN PEPTIDE ANTAGONISTS” (COVITA LIMITED, priority 2009, published 2013)
